For this experiment, the target named is sorcin (Homo sapiens, UniProt P30626). Put plainly: SPR. Format: binding.

What is called Kd is the free concentration of one partner at which half of the binding sites on the other are occupied at equilibrium, for simple one-to-one binding.

sorcin, sequence (P30626 whole entry): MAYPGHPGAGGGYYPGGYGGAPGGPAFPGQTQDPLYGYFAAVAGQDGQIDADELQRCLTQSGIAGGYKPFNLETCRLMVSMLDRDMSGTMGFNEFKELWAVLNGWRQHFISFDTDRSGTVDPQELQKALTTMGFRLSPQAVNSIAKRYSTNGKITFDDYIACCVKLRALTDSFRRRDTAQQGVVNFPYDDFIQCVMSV

`CC1=C(O)C(=O)C=C2C1=CC=C1[C@@]2(C)CC[C@@]2(C)[C@@H]3C[C@](C)(C(=O)O)CC[C@]3(C)CC[C@]12C` [compound 1, celastrol] came in with a Kd of 2130 nM.

(Values after PMC11887212 (Journal of Hematology & Oncology, 2025).)
